The record followed here is ChEMBL document CHEMBL1800051 (J Med Chem, 2010).

For series [1], the system named is RAW264.7. The series is described as follows: Inhibition of iNOS in mouse RAW264.7 cells assessed as inhibition of LPS-induced nitrite production treated 30 mins before LPS challenge measured after 24 hrs by Griess method. In kind it is functional, cell-based.
Series [2] has as its system RAW264.7. Put plainly: Inhibition of iNOS in mouse RAW264.7 cells assessed as inhibition of LPS-induced nitrite production at 50 uM treated 30 mins before LPS challenge measured after 24 hrs by Griess method. In kind it is functional.
Series [3] can be described thus: Inhibition of NF-kappaB expressed in human HEK293 cells by luciferase reporter gene based luminometric analysis. Format: cell-based. For orientation: A reporter such as luciferase makes a cellular process visible.
Series [4] deals with T1, Ribosyldihydronicotinamide dehydrogenase [quinone] (Homo sapiens, UniProt P16083).
T1 sequence (P16083 whole entry): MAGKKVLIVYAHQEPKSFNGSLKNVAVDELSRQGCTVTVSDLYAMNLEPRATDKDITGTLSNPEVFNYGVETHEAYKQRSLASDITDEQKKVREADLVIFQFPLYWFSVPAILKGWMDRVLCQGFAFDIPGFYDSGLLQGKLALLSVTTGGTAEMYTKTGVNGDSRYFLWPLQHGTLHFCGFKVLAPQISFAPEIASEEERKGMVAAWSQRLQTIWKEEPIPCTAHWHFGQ
Put plainly: Inhibition of human QR2 expressed in Escherichia coli BL21 (DE3) using MTT and NMeH as substrate assessed as formazan formation.

The target in series [5] is NAD(P)H dehydrogenase [quinone] 1 (Mus musculus) (UniProt Q64669). The following applies: Hepa-1c1c7.
The subject of another series is HCT-116. The series is described as follows: Cytotoxicity against human HCT116 cells. Format: functional, cell-based.
Series [6] concerns RAW264.7. Put plainly: Inhibition of iNOS in mouse RAW264.7 cells assessed as inhibition of LPS-induced nitrite production at 100 uM treated 30 mins before LPS challenge measured after 24 hrs by Griess method. Format: functional. A general note: The Griess reaction detects nitrite, a stable product of nitric oxide.
Series [7] can be described thus: Cytotoxicity against mouse Hepa-1c1c7 cells at 50 uM after 48 hrs by crystal violet staining. Format: cell-based. The following applies: hepa-1c1c7, 48 h.
A further series is described as follows: cells. To be noted: Mus musculus, Hepa-1c1c7, 48 h.

NAD(P)H dehydrogenase [quinone] 1 (Mus musculus), sequence (Q64669 whole entry): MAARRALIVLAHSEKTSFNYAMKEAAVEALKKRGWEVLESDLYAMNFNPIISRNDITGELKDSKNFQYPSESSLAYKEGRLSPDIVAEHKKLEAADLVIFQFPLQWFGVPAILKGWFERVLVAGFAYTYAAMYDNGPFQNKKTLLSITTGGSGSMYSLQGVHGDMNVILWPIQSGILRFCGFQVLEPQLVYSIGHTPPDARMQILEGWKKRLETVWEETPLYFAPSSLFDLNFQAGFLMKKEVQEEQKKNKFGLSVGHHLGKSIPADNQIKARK

For `COc1cc(Br)c(Br)c2nc3cc(C)c(C)cc3nc12`, the IC50 (usually the point on the concentration scale where inhibition reaches its midpoint) was 34.5 µM with RAW264.7 [1] and 1.39 µM in series [3]. In addition, the inhibition (as a rule, the drop in the measured response relative to a control, in per cent) at 50 µM in the series on RAW264.7 [2] was determined as 77.7%.
Consider `Oc1ccc(Br)c2nc3ccccc3nc12`, for which the IC50 with RAW264.7 [1] turned out to be 31.5 µM; in series [3], 5.19 µM. Moreover, the inhibition at 50 µM in the series on RAW264.7 [2] amounted to 84.7%.
In the case of `Cc1nc2c(Br)cc(Br)c(O)c2nc1C`, the IC50 in the series with RAW264.7 [1] was 45.6 µM; in [4] it was 2.9 µM; in series [3], 1.93 µM. The inhibition at 50 µM in the series with RAW264.7 [2] stood at 81.3%.
For the compound `COc1cccc2nc3cc(C)c(C)cc3nc12`, the IC50 in the series on RAW264.7 [1] was determined as 47 µM. Moreover, the inhibition at 50 µM in the series with RAW264.7 [2] was 53.8%. Further, in [5], the CD was 11.3 µM.
As for `COc1ccc2nc3ccccc3nc2c1`, the inhibition at 50 µM with RAW264.7 [2] worked out at 12.5%.
As to `Oc1c(Br)ccc2nc3ccccc3nc12`, the values for the IC50 (in the series with HCT-116; in [3]) were 0.1 µM and 73 µM, respectively. Moreover, in the series on RAW264.7 [6], the inhibition at 100 µM is 31.5%.
For `COc1cc2nc3ccccc3nc2cc1OC`, in the series on RAW264.7 [2], the inhibition at 50 µM is 29.4%.
For the compound `COc1ccc(OC)c2nc3ccccc3nc12`, the inhibition at 50 µM in the series on RAW264.7 [2] was determined as 5%.
For the compound `Cc1nc2cccc(O)c2nc1C`, the inhibition at 50 µM with RAW264.7 [2] was found to be 0%. Further, in [7], the Activity result is given as “Toxic”.
Take `COc1cc(Br)cc2nc3ccccc3nc12`: the half-inhibitory concentration (IC50) with RAW264.7 [1] was found to be 26.5 µM. Besides, the inhibition at 50 µM in the series on RAW264.7 [2] was 68.6%.
Turning to `Oc1c(Br)cc(Br)c2nc3ccccc3nc12`, the IC50 in the series on RAW264.7 [1] came out at 4.2 µM. Moreover, the inhibition at 50 µM with RAW264.7 [2] turned out to be 70.9%. The compound further registered a CD in series [5] of 27 µM.
Take `COc1cc(Br)cc2nc3cc(Cl)c(Cl)cc3nc12`: in the series on RAW264.7 [2], the inhibition at 50 µM amounted to 0%. For the same compound, in series [5], the CD was 0.012 µM. Also, in series [3], inhibition was half-maximal at 2.46 µM (IC50).
For `O=[N+]([O-])c1cc(Br)c2nc3ccccc3nc2c1`, the IC50 in the series on RAW264.7 [1] is 7.2 µM; in series [3], 13.1 µM. In addition, the inhibition at 50 µM in the series with RAW264.7 [2] was 79.7%.
For `Cc1cc(Br)cc2nc3ccccc3nc12`, the inhibition at 50 µM in the series on RAW264.7 [2] came to 5.5%.
As for `Oc1cc(Br)c(Br)c2nc3ccccc3nc12`, the IC50 in the series with RAW264.7 [1] was 17.4 µM; in series [3] it was 4.74 µM. In addition, the inhibition at 50 µM in the series with RAW264.7 [2] is 79.2%.
In series [5], `C[S+]([O-])CCCCN=C=S` (centres undefined) returned a CD of 0.23 µM.
As to `Cc1cc2nc3ccccc3nc2cc1C`, the inhibition at 50 µM in the series on RAW264.7 [2] was 49.1%. In series [5], this compound returned a CD of 23 µM. In addition, the IC50 in series [3] was found to be 9.15 µM.
Turning to `COc1cc(Br)cc2nc3cc(C)c(C)cc3nc12`, in the series with RAW264.7 [2], the inhibition at 50 µM came to 8.8%. Besides, in [3], the IC50 amounted to 6.64 µM.
With `COc1cc(Br)c(Br)c2nc3ccccc3nc12`, the IC50 in the series with RAW264.7 [1] amounted to 33.7 µM. Further, in the series on RAW264.7 [2], the inhibition at 50 µM came out at 70.9%.
Turning to `Cc1nc2cc3ccccc3cc2nc1C`, the inhibition at 50 µM in the series with RAW264.7 [2] came out at 3.4%. The compound further returned a CD in series [5] of 16.6 µM. The Activity entry in series [7] is listed as “Toxic”.
As for `COc1cccc2nc3cc4ccccc4cc3nc12`, the IC50 in the series on RAW264.7 [1] turned out to be 7.2 µM; in “cells”, 9.58 µM; in series [3], 2.1 µM. Further, the CD in [5] was 0.0047 µM.
`COc1c(Br)cc(Br)c2nc3ccccc3nc12`: in the series on RAW264.7 [2], the inhibition at 50 µM amounted to 24.7%.
On the same count and under the same terms, next, `COc1cccc2nc(C)c(C)nc12`: 0.8%.
Consider `COc1cccc2nc3cc(Cl)c(Cl)cc3nc12`, for which the inhibition at 50 µM in the series on RAW264.7 [2] came to 14.6%. In addition, the CD in series [5] was found to be 9.42 µM. In series [3], this compound yielded a half-maximal inhibitory concentration (IC50) of 16.2 µM.
Take `Brc1cc(Br)c2nc3ccccc3nc2c1`: the inhibition at 50 µM with RAW264.7 [2] stood at 16.4%.
As for `Oc1cccc2nc3cc(Cl)c(Cl)cc3nc12`, the half-inhibitory concentration (IC50) in the series with RAW264.7 [1] was 47.2 µM. For the same compound, in the series with RAW264.7 [2], the inhibition at 50 µM worked out at 51.2%. The compound further returned a CD in series [5] of 1.85 µM.
For the compound `COc1ccc(Br)c2nc3ccccc3nc12`, the inhibition at 50 µM in the series with RAW264.7 [2] amounted to 47.5%. In addition, the CD in series [5] came to 4.3 µM.
On to `COc1cccc2nc3ccccc3nc12`, for which the inhibition at 50 µM in the series with RAW264.7 [2] was found to be 2.4%.
For `Cc1ccc2nc3ccccc3nc2c1`, the inhibition at 50 µM in the series with RAW264.7 [2] stood at 38.7%.
The compound `CS/C(S)=N/CCCC[S+](C)[O-]` (centres undefined) showed a CD in series [5] of 0.26 µM.
Take `Oc1cc(Br)cc2nc3ccccc3nc12`: the IC50 with RAW264.7 [1] came to 28.4 µM; in [3], 5.42 µM. Further, the inhibition at 50 µM in the series on RAW264.7 [2] is 86.5%.
`c1ccc2cc3nc4ccccc4nc3cc2c1` [BENZO[B]PHENAZINE]: the values for the IC50 (in the series on RAW264.7 [1]; in [3]) were 5.9 µM and 2.48 µM, respectively. The inhibition at 50 µM in the series with RAW264.7 [2] was 98.7%. Moreover, the CD in series [5] was found to be 4.39 µM. The Activity entry in series [7] is recorded as “Toxic”.
In the case of `COc1c(Br)ccc2nc3ccccc3nc12`, the inhibition at 50 µM with RAW264.7 [2] came out at 44.7%. Further, the CD in series [5] was found to be 29.4 µM.
Regarding `COc1ccc(Br)c2nc3cc(C)c(C)cc3nc12`, the figures for the IC50 (in the series with RAW264.7 [1]; in [3]) were 48.9 µM and 17 µM, respectively. In addition, the inhibition at 50 µM in the series on RAW264.7 [2] stood at 51.9%. Also, the CD in series [5] stood at 1.83 µM.
